How the values were obtained:
[1] = target: Arachidonate 5-lipoxygenase (Cavia porcellus); experiment: In vitro inhibitory activity against 5-lipoxygenase by reduction of LTB4 formed in guinea pig polymorphonuclear leukocytes (PMNs).
[2] = target: Arachidonate 5-lipoxygenase (Cavia porcellus); experiment: In vitro inhibitory activity against 5-lipoxygenase by reduction of 5-hydroxyeicosatetraenoic acid (5-HETE) formed in guinea pig polymorphonuclear leukocytes (PMNs).
[3] = target: Arachidonate 5-lipoxygenase (Cavia porcellus); experiment: as above; remark: listed apart in the source
[4] = target: Thromboxane-A synthase (Homo sapiens) (UniProt P24557); experiment: Inhibitory concentration against human platelet thromboxane synthetase
Chain of Thromboxane-A synthase (Homo sapiens) (P24557 whole entry, looked up): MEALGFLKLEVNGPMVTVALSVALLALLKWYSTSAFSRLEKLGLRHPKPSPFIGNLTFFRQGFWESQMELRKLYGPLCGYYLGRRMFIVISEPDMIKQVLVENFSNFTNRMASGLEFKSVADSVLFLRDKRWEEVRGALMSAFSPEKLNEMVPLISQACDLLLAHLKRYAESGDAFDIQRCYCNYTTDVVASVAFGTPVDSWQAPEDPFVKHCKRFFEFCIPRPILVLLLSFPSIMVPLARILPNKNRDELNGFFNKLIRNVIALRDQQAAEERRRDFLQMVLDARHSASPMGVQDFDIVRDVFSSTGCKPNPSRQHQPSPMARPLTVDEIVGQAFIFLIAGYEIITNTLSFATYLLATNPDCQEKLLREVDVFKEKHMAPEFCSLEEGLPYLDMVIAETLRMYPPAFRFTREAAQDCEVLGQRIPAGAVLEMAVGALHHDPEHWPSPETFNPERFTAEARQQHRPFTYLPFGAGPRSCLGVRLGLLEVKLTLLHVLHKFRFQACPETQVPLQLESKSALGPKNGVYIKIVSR

| SMILES | IC50 [1] [nM] | IC50 [2] [nM] | IC50 [3] [nM] | IC50 [4] [nM] |
| --- | --- | --- | --- | --- |
| NC(=O)N(O)CC1=Cc2cc(OCC3CCCCC3)ccc2OC1 [N-(6-Cyclohexylmethoxy-2H-chromen-3-ylmethyl)-hydroxylurea] | 1390 | 1360 |  |  |
| NC(=O)N(O)CC1=Cc2cc(OCc3ccc(C(F)(F)F)cc3)ccc2OC1 [N-[6-(4-Trifluoromethyl-benzyloxy)-2H-chromen-3-ylmethyl]-hydroxylurea] | 490 |  | 430 |  |
| CCOC(=O)CNC(=O)N(O)CC1=Cc2cc(Oc3ccccc3)ccc2OC1 [ethyl [({hydroxy[(6-phenoxy-2H-chromen-3-yl)methyl]amino}carbonyl)amino]acetate] | 74 | 68 |  |  |
| CCCC1Oc2ccc(Oc3ccccc3)cc2C=C1CN(O)C(N)=O (stereo not given) [N-hydroxy-N-[(6-phenyoxy-2-propyl-2H-chromen-3-yl)methyl]urea] | 870 |  | 880 |  |
| CCCCCCOc1ccc2c(c1)C=C(CN(O)C(N)=O)CO2 [N-(6-Hexyloxy-2H-chromen-3-ylmethyl)-hydroxylurea] | 340 |  | 280 |  |
| CC1(C)Oc2ccc(Oc3ccccc3)cc2C=C1CN(O)C(N)=O [N-[(2,2-dimethyl-6-phenyoxy-2H-chromen-3-yl)methyl]-N-hydroxyurea] | 440 |  | 310 |  |
| CC(c1cc2ccccc2s1)N(O)C(N)=O (racemic) [Leutrol] |  |  |  | > 20000 |
| CC1Oc2ccc(Oc3ccccc3)cc2C=C1CN(O)C(N)=O (stereo not given) [N-hydroxy-N-[(2-methyl-6-phenyoxy-2H-chromen-3-yl)methyl]urea] | 87 |  | 120 |  |
| NC(=O)N(O)CC1=Cc2cc(OCCCc3ccccc3)ccc2OC1 | 160 |  | 130 |  |
| CC(C)NC(=O)N(O)CC1=Cc2cc(Oc3ccccc3)ccc2OC1 [N-hydroxy-N'-isopropyl-N-[(6-phenoxy-2H-chromen-3-yl)methyl]urea] | 63 |  | 49 |  |
| NC(=S)N(O)CC1=Cc2cc(Oc3ccccc3)ccc2OC1 [N-hydroxy-N-[(6-phenoxy-2H-chromen-3-yl)methyl]thiourea] | 200 |  | 180 |  |
| NC(=O)N(O)CC1=Cc2cc(Br)ccc2OC1 [N-[(6-bromo-2H-chromen-3-yl)methyl]-N-hydroxyurea] | 1400 | 1400 |  |  |
| NC(=O)N(O)CC1=Cc2cc(Oc3ccccc3)ccc2OC1 [N-hydroxy-N-[(6-phenoxy-2H-chromen-3-yl)methyl]urea] |  |  |  | > 20000 |
| COc1ccc2c(c1)OCC(CN(O)C(N)=O)C2 (stereo not given) [N-hydroxy-N-[(7-methoxy-3,4-dihydro-2H-chromen-3-yl)methyl]urea] | > 3000 |  | > 3000 |  |
| CNC(=O)N(O)CC1=Cc2cc(Oc3ccc(F)cc3)ccc2OC1 [N-{[6-(4-fluorophenoxy)-2H-chromen-3-yl]methyl}-N-hydroxy-N'-methylurea] |  |  |  | > 20000 |
| NC(=O)N(O)CC1=Cc2cc(OCc3ccccc3)ccc2OC1 [N-(6-Benzyloxy-2H-chromen-3-ylmethyl)-hydroxylurea] | 380 | 440 |  |  |
| NC(=O)N(O)CC1=Cc2cc(-c3ccccc3)ccc2OC1 [N-hydroxy-N-[(6-phenyl-2H-chromen-3-yl)methyl]urea] | 230 | 240 |  |  |
| CCCCNC(=O)N(O)CC1=Cc2cc(Oc3ccccc3)ccc2OC1 [N-hydroxy-N-[(6-phenoxy-2H-chromen-3-yl)methyl]-N'-butylurea] | 69 | 65 |  |  |
| C=CCNC(=O)N(O)CC1=Cc2cc(Oc3ccccc3)ccc2OC1 [N'-allyl-N-hydroxy-N-[(6-phenoxy-2H-chromen-3-yl)methyl]urea] | 44 | 37 |  |  |

— BindingDB's records for doi:10.1021/jm00075a013 (Ciba-Geigy, 1994)
